Assays:
KIT = target: T1, KIT (Homo sapiens, UniProt P10721); assay: Kinome screen, KIT; format: binding; conditions: screened at 1 μM
T1 construct: made in house; host or cells: T7 phage in E. coli (BL21-derived) or HEK-293
Protocol: (§1) Kinase-tagged T7 phage strains were grown in parallel in 24-well blocks in an E. coli host derived from the BL21 strain. E. coli were grown to log-phase and infected with T7 phage from a frozen stock (multiplicity of infection=0.4) and incubated with shaking at 32° C. until lysis (90-150 minutes). The lysates were centrifuged (6,000×g) and filtered (0.2 μm) to remove cell debris. The remaining kinases were produced in HEK-293 cells and subsequently tagged with DNA for qPCR detection.
(§2) Streptavidin-coated magnetic beads were treated with biotinylated small molecule ligands for 30 minutes at room temperature to generate affinity resins for kinase assays. The liganded beads were blocked with excess biotin and washed with blocking buffer (SeaBlock (Pierce), 1% BSA, 0.05% Tween 20, 1 mM DTT) to remove unbound ligand and to reduce non-specific phage binding. […] Test compounds were prepared as 40× stocks in 100% DMSO and directly diluted into the assay. All reactions were performed in polypropylene 384-well plates in a final volume of 0.04 ml. […] The beads were then re-suspended in elution buffer (1×PBS, 0.05% Tween 20, 0.5 μM non-biotinylated affinity ligand) and incubated at room temperature with shaking for 30 minutes. The kinase concentration in the eluates was measured by qPCR.

[1] = system: IL-2 stimulated pSTAT5 in CD4+ T cells; assay: Cellular JAK potency assay: inhibition of IL-2 stimulated pSTAT5 in CD4+ T cells; format: cell-based; conditions: 0.5 h; CD4+ T cells in human PBMCs, 30 min stimulation; read-out: pIC50, inhibition of IL-2 stimulated pSTAT5 (converted)
Protocol: The potency of the test compound for inhibition of interleukin-2 (IL-2)/anti-CD3 stimulated STAT5 phosphorylation was measured in CD4-positive (CD4+) T cells in human peripheral blood mononuclear cells (PBMCs) isolated from human whole blood (Stanford Blood Center) using flow cytometry. Because IL-2 signals through JAK, this assay provides a measure of JAK cellular potency.
CD4+ T cells were identified using a […] (PE) conjugated anti-CD4 antibody (Clone RPA-T4, BD Biosciences), while an Alexa Fluor 647 conjugated anti-pSTAT5 antibody (pY694, Clone 47, BD Biosciences) was used to detect STAT5 phosphorylation. […]
(2) After cytokine stimulation, cells were fixed with pre warmed fix solution (200 μL; BD Biosciences) for 10 min at 37° C., 5% CO2, washed twice with DPBS buffer (1 mL, Life Technologies), and resuspended in ice cold Perm Buffer III (1000 μL, BD Biosciences) for 30 min at 4° C. […] After incubation, cells were washed twice in FACS buffer before being analyzed using a LSRII flow cytometer (BD Biosciences). To determine the inhibitory potency of the test compound in response to IL-2/anti-CD3, the median fluorescent intensity (MFI) of pSTAT5 was measured in CD4+ T cells. IC50 values were determined from analysis of the inhibition curves of MFI vs compound concentration. Data are expressed as pIC50 (negative decadic logarithm IC50) values.

VEGFR2 = target: T2, VEGFR2 (Homo sapiens, UniProt P35968); assay: Kinome screen, VEGFR2; format: binding; conditions: screened at 1 μM
T2 construct: made in house; host or cells: T7 phage in E. coli (BL21-derived) or HEK-293
Protocol: as §1, §2

PLK4 = target: T3, PLK4 (Homo sapiens, UniProt O00444); assay: Kinome screen, PLK4; format: binding; conditions: screened at 1 μM
T3 construct: made in house; host or cells: T7 phage in E. coli (BL21-derived) or HEK-293
Protocol: as §1, §2

JAK3 = target: T4, JAK3 (Homo sapiens, UniProt P52333); assay: LanthaScreen JAK biochemical assay, JAK3; conditions: read-out: JAK 3 pKi (converted)
T4 construct: GST; purchased Life Technologies
Protocol: A panel of four LanthaScreen JAK biochemical assays (JAK1, 2, 3 and Tyk2) were carried in a common kinase reaction buffer (50 mM HEPES, pH 7.5, 0.01% Brij-35, 10 mM MgCl2, and 1 mM EGTA). Recombinant GST-tagged JAK enzymes and a GFP-tagged STAT1 peptide substrate were obtained from Life Technologies.
Serially diluted compound was pre-incubated with each of the four JAK enzymes and the substrate in white 384-well microplates (Corning) at ambient temperature for 1 h. ATP was subsequently added to initiate the kinase reactions in 10 μL total volume, with 1% DMSO. […] The plates were allowed to incubate at ambient temperature for 1 h before being read on the EnVision reader (Perkin Elmer). Emission ratio signals (520 nm/495 nm) were recorded and utilized to calculate the percent inhibition values based on DMSO and background controls.
For dose-response analysis, percent inhibition data were plotted vs. compound concentrations, and IC50 values were determined from a 4-parameter robust fit model with the Prism software (GraphPad Software). Results were expressed as pIC50 (negative logarithm of IC50) and subsequently converted to pKi (negative logarithm of dissociation constant, Ki) using the Cheng-Prusoff equation.

T3 sequence (O00444 whole entry): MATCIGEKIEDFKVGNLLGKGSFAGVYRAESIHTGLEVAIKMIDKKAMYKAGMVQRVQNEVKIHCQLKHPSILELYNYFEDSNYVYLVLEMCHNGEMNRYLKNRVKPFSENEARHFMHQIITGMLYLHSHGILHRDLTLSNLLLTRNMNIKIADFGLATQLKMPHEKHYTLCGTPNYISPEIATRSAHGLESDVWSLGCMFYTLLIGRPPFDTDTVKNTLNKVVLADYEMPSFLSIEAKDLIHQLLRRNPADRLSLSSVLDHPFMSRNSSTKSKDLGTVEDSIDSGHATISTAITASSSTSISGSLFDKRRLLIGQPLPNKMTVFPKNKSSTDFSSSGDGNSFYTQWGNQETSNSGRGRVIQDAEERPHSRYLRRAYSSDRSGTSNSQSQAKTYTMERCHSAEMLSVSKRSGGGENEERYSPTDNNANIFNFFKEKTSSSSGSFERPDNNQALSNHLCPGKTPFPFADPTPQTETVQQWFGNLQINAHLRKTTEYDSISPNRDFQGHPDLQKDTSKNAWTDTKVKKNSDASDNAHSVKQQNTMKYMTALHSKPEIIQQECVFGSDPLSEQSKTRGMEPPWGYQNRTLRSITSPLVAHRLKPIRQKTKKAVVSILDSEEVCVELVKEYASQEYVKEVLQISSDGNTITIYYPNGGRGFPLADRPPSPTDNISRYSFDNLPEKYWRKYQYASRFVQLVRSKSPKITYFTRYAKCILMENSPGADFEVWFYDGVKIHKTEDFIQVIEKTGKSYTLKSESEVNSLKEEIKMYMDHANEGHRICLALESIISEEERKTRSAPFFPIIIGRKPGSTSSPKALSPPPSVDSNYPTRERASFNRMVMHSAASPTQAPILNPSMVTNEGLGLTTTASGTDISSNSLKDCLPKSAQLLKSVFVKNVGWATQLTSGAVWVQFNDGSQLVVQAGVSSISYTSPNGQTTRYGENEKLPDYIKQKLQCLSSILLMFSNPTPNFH
T2 sequence (P35968 20-1356): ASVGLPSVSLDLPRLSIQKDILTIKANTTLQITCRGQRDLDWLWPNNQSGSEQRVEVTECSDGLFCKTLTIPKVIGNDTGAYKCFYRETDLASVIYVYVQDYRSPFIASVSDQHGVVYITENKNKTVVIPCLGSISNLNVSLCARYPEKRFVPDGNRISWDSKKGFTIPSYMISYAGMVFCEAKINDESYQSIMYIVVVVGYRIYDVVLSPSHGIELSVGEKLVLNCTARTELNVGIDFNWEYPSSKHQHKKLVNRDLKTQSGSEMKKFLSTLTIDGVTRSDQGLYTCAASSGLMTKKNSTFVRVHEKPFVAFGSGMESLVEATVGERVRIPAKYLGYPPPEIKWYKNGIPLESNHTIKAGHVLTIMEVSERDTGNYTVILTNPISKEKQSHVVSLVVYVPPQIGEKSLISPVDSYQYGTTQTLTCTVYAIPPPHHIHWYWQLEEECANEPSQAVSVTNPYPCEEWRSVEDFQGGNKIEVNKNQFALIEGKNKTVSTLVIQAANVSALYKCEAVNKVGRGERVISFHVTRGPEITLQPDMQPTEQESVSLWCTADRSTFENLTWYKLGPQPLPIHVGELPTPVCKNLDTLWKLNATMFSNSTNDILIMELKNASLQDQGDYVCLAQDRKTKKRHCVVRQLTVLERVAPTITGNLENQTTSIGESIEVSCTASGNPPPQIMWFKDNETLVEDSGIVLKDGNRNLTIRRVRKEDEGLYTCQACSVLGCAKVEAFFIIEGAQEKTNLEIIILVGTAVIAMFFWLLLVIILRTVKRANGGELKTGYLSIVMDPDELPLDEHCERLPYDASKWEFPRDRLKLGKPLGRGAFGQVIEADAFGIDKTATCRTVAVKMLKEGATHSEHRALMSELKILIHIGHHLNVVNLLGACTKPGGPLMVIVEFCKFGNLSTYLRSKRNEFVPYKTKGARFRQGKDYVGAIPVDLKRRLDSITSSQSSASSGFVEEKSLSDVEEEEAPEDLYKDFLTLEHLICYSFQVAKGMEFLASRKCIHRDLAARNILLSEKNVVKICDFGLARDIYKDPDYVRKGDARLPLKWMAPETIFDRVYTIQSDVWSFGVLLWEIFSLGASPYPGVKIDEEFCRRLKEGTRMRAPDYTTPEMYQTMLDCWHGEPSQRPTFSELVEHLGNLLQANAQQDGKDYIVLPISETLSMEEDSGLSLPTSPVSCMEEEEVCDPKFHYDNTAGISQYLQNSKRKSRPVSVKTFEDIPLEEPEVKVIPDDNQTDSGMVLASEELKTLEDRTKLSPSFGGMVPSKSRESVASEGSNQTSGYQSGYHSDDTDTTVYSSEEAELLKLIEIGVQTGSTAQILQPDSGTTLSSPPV
T1 sequence (P10721 26-976): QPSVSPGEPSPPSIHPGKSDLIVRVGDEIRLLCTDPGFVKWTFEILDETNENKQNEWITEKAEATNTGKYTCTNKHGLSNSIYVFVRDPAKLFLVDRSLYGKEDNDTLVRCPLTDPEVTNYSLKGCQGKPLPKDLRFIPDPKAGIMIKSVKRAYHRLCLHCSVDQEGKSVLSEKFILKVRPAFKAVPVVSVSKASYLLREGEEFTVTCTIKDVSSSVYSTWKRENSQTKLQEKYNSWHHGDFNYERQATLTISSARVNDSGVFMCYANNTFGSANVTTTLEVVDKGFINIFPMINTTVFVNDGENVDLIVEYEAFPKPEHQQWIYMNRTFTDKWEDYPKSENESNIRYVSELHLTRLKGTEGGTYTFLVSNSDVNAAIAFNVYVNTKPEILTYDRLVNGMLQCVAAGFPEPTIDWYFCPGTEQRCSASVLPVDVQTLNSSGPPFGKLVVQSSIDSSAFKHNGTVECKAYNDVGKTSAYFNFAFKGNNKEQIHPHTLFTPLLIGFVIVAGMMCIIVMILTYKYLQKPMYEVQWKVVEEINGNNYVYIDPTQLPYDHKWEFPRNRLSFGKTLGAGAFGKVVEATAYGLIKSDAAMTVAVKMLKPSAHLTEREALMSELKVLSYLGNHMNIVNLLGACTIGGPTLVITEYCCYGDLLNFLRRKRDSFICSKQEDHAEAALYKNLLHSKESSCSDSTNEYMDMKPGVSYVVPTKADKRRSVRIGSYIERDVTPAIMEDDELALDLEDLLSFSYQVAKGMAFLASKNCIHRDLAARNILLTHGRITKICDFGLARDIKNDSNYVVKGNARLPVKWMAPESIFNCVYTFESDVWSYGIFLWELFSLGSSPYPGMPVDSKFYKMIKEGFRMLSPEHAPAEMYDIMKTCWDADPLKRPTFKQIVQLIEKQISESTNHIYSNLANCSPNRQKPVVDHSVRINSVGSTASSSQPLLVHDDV
T4 sequence (P52333 whole entry): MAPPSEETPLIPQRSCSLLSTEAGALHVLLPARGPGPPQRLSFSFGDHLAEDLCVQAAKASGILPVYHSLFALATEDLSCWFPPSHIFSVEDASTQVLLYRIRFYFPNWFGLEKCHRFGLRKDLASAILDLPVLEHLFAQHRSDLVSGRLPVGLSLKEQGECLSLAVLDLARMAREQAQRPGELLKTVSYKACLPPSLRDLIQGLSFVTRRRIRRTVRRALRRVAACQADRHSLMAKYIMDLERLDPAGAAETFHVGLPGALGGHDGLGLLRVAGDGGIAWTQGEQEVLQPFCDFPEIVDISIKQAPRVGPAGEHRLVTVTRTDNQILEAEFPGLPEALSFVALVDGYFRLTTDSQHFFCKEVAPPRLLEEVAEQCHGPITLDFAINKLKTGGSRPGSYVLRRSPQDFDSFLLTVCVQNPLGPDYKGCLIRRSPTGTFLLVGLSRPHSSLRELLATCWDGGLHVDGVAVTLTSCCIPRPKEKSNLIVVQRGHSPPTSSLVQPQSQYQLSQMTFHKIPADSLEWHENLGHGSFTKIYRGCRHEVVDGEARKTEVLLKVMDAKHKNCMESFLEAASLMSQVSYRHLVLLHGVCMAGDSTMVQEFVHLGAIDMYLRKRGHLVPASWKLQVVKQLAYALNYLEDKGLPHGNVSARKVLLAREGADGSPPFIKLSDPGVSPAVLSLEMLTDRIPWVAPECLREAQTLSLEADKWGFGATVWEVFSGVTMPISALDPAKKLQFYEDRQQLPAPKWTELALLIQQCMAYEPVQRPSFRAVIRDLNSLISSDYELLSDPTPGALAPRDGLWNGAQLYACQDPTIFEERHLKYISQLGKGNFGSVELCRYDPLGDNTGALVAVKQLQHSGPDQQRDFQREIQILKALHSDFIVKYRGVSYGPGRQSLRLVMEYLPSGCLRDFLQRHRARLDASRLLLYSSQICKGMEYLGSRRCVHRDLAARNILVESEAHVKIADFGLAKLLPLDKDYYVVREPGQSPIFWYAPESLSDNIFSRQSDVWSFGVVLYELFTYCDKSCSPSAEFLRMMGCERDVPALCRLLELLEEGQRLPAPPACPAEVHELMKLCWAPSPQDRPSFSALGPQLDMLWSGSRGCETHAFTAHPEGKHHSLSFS

Question: With `CCc1cc(O)c(F)cc1-c1cc(F)c2c(-c3nc4c([nH]3)CCN(C(=O)CN3CCOCC3)C4)n[nH]c2c1` [Compound 1, 1-(2-(6-(2-ethyl-5-fluoro-4-hydroxyphenyl)-4-fluoro-1H-indazol-3-yl)-1,4,6,7-tetrahydro-5H-imidazo[4,5-c]pyridin-5-yl)-2-morpholinoethan-1-one] as the molecule, how does the inhibition at 1 µM (KIT) read?
Answer: 87%

Question: What about the IC50 [1] of the same molecule?
Answer: ~20 nM

Question: And the inhibition at 1 µM (VEGFR2)?
Answer: 42%

Question: And the inhibition at 1 µM (PLK4)?
Answer: 58%

Question: What about the Ki (JAK3) of the same molecule?
Answer: 0.2 nM

Source: patent US10493077B2, “Fused imidazo-piperidine JAK inhibitor compound” (THERAVANCE BIOPHARMA R&D IP, LLC, priority 2017, dated 2019)
